From PubChem BioAssay AID248 (DTP/NCI, 2004)
“And” between values parts separate entries of the source, which are not always exact repeats. Equal entries are not always repeated. Inconclusive results and toxic doses are left out.

Tested on: L1210 leukemia ip in BDF1 mice, survival T/C
Assay: NCI In Vivo Anticancer Drug Screen. Data for tumor model L1210 Leukemia (intraperitoneal) in B6D2F1 (BDF1) mice
Conditions: endpoint: mean survival time, higher = longer survival
Outline: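 Mice bearing the transplanted tumor received compound or vehicle. Survival of the treated group was divided by that of the vehicle-treated control group to give the ratio.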

[1] = dose: 100.0 mg/kg/injection, schedule: Q04DX003 (ip), vehicle: saline
[2] = dose: 200.0 mg/kg/injection, schedule: Q04DX003 (ip), vehicle: saline
[3] = dose: 400.0 mg/kg/injection, schedule: Q04DX003 (ip), vehicle: saline

Question: What does the source list for `CC(O)Cc1c(Cc2ccccc2)nc(N)[nH]c1=O` (stereo not given)?
Answer: T/C [1]: 96 % of control; T/C [2]: 97 % of control; T/C [3]: 92 % of control

Question: With `O=[As](O)(O)c1ccccc1Br` as the compound, how does the T/C (dose: 75.0 mg/kg/injection, schedule: Q01DX001 (ip), vehicle: saline) read?
Answer: The T/C was 111 % of control.

Question: What about the T/C (dose: 150.0 mg/kg/injection, schedule: Q01DX001 (ip), vehicle: saline) of the same compound?
Answer: The T/C was 105 % of control.

Question: And the T/C (dose: 300.0 mg/kg/injection, schedule: Q01DX001 (ip), vehicle: saline)?
Answer: Its T/C is 102 % of control.

Question: `Cc1cccc2c(Nc3ccc(NS(C)(=O)=O)cc3)c3ccccc3nc12` was tested. Which T/C (dose: 2.5 mg/kg/injection, schedule: Q01DX009 (ip), vehicle: Klucel (hydroxypropylcellulose) (HPC)) did it give?
Answer: Its T/C is 115 % of control.

Question: And the T/C (dose: 5.0 mg/kg/injection, schedule: Q01DX009 (ip), vehicle: Klucel (hydroxypropylcellulose) (HPC))?
Answer: The T/C was 115 % of control.

Question: What about the T/C (dose: 10.0 mg/kg/injection, schedule: Q01DX009 (ip), vehicle: Klucel (hydroxypropylcellulose) (HPC)) of the same compound?
Answer: The T/C was 117 % of control.

Question: What about the T/C (dose: 10.0 mg/kg/injection, schedule: Q01DX009 (ip), vehicle: saline with Tween-80) of the same compound?
Answer: Its T/C is 120 % of control.

Question: And the T/C (dose: 10.0 mg/kg/injection, schedule: Q01DX009 (sc), vehicle: saline)?
Answer: Its T/C is 112 % of control.

Question: And the T/C (dose: 20.0 mg/kg/injection, schedule: Q01DX001 (ip), vehicle: saline with Tween-80)?
Answer: The T/C was 121 % of control.

Question: And the T/C (dose: 20.0 mg/kg/injection, schedule: Q01DX009 (ip), vehicle: Klucel (hydroxypropylcellulose) (HPC))?
Answer: Its T/C is 224 % of control.

Question: And the T/C (dose: 20.0 mg/kg/injection, schedule: Q01DX009 (ip), vehicle: saline with Tween-80)?
Answer: The T/C was 166 % of control.

Question: And the T/C (dose: 20.0 mg/kg/injection, schedule: Q01DX009 (sc), vehicle: saline)?
Answer: Its T/C is 110 % of control.

Question: What about the T/C (dose: 40.0 mg/kg/injection, schedule: Q01DX001 (ip), vehicle: saline with Tween-80) of the same compound?
Answer: Its T/C is 117 % of control.

Question: What about the T/C (dose: 40.0 mg/kg/injection, schedule: Q01DX009 (ip), vehicle: Klucel (hydroxypropylcellulose) (HPC)) of the same compound?
Answer: Its T/C is 103 % of control.

Question: And the T/C (dose: 40.0 mg/kg/injection, schedule: Q01DX009 (ip), vehicle: saline with Tween-80)?
Answer: Its T/C is 178 % of control.

Question: And the T/C (dose: 40.0 mg/kg/injection, schedule: Q01DX009 (sc), vehicle: saline)?
Answer: Its T/C is 113 % of control.

Question: And the T/C (dose: 40.0 mg/kg/injection, schedule: Q04DX003 (ip), vehicle: saline with Tween-80)?
Answer: The T/C was 159 % of control.

Question: What about the T/C (dose: 80.0 mg/kg/injection, schedule: Q01DX009 (ip), vehicle: saline with Tween-80) of the same compound?
Answer: The T/C was 116 % of control.

Question: And the T/C (dose: 80.0 mg/kg/injection, schedule: Q04DX003 (ip), vehicle: Klucel (hydroxypropylcellulose) (HPC))?
Answer: Its T/C is 164 % of control.

Question: And the T/C (dose: 80.0 mg/kg/injection, schedule: Q04DX003 (ip), vehicle: saline with Tween-80)?
Answer: Its T/C is 151 % of control.

Question: And the T/C [1]?
Answer: The T/C was 123 % of control.

Question: And the T/C (dose: 160.0 mg/kg/injection, schedule: Q04DX003 (ip), vehicle: Klucel (hydroxypropylcellulose) (HPC))?
Answer: Its T/C is 206 % of control.

Question: What about the T/C (dose: 160.0 mg/kg/injection, schedule: Q04DX003 (ip), vehicle: saline with Tween-80) of the same compound?
Answer: Its T/C is 168 % of control.

Question: What about the T/C [2] of the same compound?
Answer: Its T/C is 167 % of control.

Question: What about the T/C [3] of the same compound?
Answer: Its T/C is 94 % of control.

Question: Which results are given for `NC(=O)c1[nH]cnc1NN=NCCCl`?
Answer: T/C (dose: 0.37 mg/kg/injection, schedule: Q01DX009 (ip), vehicle: saline with Tween-80): 165 % of control; T/C (dose: 0.75 mg/kg/injection, schedule: Q01DX001 (ip), vehicle: saline with Tween-80): 106 % of control; T/C (dose: 0.75 mg/kg/injection, schedule: Q01DX009 (ip), vehicle: saline with Tween-80): 119 % of control; T/C (dose: 1.5 mg/kg/injection, schedule: Q01DX009 (ip), vehicle: saline with Tween-80): 122 % of control; T/C (dose: 3.0 mg/kg/injection, schedule: Q01DX009 (ip), vehicle: saline with Tween-80): 173 % of control; T/C (dose: 3.12 mg/kg/injection, schedule: Q01DX009 (ip), vehicle: saline with Tween-80): 172 % of control; T/C (dose: 4.0 mg/kg/injection, schedule: Q01DX009 (ip), vehicle: saline with Tween-80): 156 % of control and 189 % of control; T/C (dose: 6.0 mg/kg/injection, schedule: Q01DX009 (ip), vehicle: saline with Tween-80): 164 % of control and 240 % of control; T/C (dose: 6.25 mg/kg/injection, schedule: Q01DX009 (ip), vehicle: saline with Tween-80): 258 % of control; T/C (dose: 9.0 mg/kg/injection, schedule: Q01DX009 (ip), vehicle: saline with Tween-80): 191 % of control and 215 % of control; T/C (dose: 12.5 mg/kg/injection, schedule: Q01DX001 (ip), vehicle: saline with Tween-80): 247 % of control; T/C (dose: 12.5 mg/kg/injection, schedule: Q01DX009 (ip), vehicle: saline with Tween-80): 161 % of control; T/C (dose: 17.0 mg/kg/injection, schedule: Q01DX001 (ip), vehicle: saline with Tween-80): 215 % of control and 229 % of control; T/C (dose: 25.0 mg/kg/injection, schedule: Q01DX001 (ip), vehicle: saline with Tween-80): 207 % of control and 285 % of control and 313 % of control; T/C (dose: 25.0 mg/kg/injection, schedule: Q01DX009 (ip), vehicle: saline with Tween-80): 91 % of control; T/C (dose: 37.0 mg/kg/injection, schedule: Q01DX001 (ip), vehicle: saline with Tween-80): 171 % of control and 257 % of control; T/C (dose: 50.0 mg/kg/injection, schedule: Q01DX001 (ip), vehicle: saline with Tween-80): 197 % of control
